Measured values taken from patent US10168342B2, “Lipid probes and uses thereof” (THE SCRIPPS RESEARCH INSTITUTE, priority 2015, dated 2019).
Where two headings read alike, the source gives them in different places.

Experiments:
[1] = target: T1, AEA-DA lipid probe targets in Neuro2a cells (Mus musculus, UniProt Q9ES97)
T1 sequence (Q9ES97 1-964): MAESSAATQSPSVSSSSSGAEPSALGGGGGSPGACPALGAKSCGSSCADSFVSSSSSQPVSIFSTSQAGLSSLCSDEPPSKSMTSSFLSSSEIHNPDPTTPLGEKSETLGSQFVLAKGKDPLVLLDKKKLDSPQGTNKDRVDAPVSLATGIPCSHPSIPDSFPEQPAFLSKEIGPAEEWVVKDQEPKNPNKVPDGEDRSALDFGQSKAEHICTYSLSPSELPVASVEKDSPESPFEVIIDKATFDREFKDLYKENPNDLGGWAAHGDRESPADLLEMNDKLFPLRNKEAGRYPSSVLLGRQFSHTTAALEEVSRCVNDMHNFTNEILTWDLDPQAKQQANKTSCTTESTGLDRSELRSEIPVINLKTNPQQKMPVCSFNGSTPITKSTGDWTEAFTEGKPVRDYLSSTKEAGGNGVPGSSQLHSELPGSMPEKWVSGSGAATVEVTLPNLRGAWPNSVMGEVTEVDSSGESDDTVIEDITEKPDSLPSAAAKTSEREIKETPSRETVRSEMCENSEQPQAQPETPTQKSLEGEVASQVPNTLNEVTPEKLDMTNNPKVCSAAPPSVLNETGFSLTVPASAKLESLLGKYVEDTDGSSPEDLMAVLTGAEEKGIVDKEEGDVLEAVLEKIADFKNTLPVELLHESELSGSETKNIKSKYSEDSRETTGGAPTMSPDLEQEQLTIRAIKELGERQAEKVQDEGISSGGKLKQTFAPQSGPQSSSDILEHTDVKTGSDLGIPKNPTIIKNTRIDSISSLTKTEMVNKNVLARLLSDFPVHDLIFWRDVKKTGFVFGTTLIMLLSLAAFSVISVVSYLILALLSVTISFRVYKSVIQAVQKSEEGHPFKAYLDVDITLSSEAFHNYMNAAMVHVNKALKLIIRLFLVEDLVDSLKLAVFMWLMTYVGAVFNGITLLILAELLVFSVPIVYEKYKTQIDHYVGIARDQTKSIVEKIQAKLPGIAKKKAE

[2] = target: AEA-DA lipid probe targets in Neuro2a cells (Mus musculus, UniProt P53994)
[3] = target: T2, AEA-DA lipid probe targets in Neuro2a cells (Mus musculus, UniProt Q9CY50)
T2 sequence (Q9CY50 22-286): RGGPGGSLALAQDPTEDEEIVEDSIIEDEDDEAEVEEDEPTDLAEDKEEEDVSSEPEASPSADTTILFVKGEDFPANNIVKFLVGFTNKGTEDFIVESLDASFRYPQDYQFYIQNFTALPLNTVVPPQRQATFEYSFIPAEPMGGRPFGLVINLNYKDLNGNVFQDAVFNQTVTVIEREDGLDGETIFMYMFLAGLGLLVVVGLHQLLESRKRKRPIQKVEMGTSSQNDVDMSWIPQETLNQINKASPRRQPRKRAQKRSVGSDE

[4] = target: T3, AEA-DA lipid probe targets in Neuro2a cells (Mus musculus, UniProt Q8BSF4)
T3 sequence (Q8BSF4 50-406): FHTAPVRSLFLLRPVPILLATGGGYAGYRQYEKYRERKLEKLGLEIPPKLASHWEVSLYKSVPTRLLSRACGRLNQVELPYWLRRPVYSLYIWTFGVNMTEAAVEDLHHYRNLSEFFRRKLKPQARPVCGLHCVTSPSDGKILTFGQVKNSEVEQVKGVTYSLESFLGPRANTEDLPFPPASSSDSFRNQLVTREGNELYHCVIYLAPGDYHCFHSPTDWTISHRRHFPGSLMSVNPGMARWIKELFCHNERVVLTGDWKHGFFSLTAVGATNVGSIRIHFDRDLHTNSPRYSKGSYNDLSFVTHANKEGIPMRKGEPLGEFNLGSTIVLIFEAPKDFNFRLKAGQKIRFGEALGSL

[5] = target: T4, AEA-DA lipid probe targets in Neuro2a cells (Mus musculus, UniProt Q9CRD0)
T4 sequence (Q9CRD0 1-247): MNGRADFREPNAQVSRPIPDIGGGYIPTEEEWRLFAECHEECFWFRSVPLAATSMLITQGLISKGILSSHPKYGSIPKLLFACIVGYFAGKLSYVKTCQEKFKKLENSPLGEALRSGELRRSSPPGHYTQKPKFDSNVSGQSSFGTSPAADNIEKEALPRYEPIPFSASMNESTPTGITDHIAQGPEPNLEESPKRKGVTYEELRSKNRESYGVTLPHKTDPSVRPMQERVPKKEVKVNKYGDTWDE

[6] = target: AEA-DA lipid probe targets in Neuro2a cells (Mus musculus, UniProt P47740)
[7] = target: T5, AEA-DA lipid probe targets in Neuro2a cells (Mus musculus, UniProt Q924D0); conditions: protein Rtn4ip1, Neuro2a cells
T5 sequence (Q924D0 41-396): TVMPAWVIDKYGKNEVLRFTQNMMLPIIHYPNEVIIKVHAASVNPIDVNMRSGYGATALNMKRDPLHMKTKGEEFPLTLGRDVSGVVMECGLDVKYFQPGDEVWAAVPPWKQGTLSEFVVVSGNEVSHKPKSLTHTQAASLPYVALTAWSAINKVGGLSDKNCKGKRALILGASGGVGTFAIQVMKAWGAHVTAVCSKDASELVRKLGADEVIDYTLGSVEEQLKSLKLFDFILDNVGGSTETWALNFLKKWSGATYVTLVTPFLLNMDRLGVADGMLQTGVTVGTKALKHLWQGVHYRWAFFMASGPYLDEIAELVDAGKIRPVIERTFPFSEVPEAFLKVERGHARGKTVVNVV

Chain of AEA-DA lipid probe targets in Neuro2a cells (Mus musculus, UniProt P53994) (P53994 whole entry): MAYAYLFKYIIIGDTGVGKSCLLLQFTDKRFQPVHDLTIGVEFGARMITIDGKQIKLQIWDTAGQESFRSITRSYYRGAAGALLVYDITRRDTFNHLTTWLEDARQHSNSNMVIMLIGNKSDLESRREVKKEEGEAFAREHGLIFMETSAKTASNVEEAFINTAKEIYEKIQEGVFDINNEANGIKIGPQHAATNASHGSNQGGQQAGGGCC
Chain of AEA-DA lipid probe targets in Neuro2a cells (Mus musculus, UniProt P47740) (P47740 whole entry): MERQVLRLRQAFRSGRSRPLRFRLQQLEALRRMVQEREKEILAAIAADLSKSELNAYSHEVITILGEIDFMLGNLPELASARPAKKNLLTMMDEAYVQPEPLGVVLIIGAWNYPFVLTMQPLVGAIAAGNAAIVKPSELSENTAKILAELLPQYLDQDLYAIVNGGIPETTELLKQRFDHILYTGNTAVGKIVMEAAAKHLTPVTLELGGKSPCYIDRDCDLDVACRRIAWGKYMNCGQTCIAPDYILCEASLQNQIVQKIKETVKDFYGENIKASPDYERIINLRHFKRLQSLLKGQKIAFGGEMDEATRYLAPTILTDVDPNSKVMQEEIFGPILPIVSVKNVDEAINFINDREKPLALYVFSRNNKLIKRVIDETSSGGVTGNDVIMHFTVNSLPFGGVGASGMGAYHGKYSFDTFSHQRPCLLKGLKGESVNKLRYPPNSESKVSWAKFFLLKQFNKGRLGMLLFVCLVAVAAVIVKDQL

In the case of C=CCN(C)CCCCCCOc1ccc(C(=O)c2ccc(Br)cc2)c(F)c1 [Ro 48-8071, reference compound], the “SILAC ratio, Rtn3” value ([1]; competitor 25 μM) is reported as 1.2, the “SILAC ratio Rab2a” value ([2]; competitor 25 μM) is reported as 1.1 and the “SILAC ratio, Ssr1” value ([3]; competitor 25 μM) is reported as 1.3. The “SILAC ratio, Pisd” value ([4]; competitor 25 μM) was 1.3, the “SILAC ratio Ociad1” value ([5]; competitor 25 μM) was 1.0 and the “SILAC ratio, Aldh3a2” value ([6]; competitor 25 μM) was 1.3. The “SILAC ratio (AEA-DA competition)” value ([7]; competitor 25 μM) was 0.7.
CN1CCN(C(=O)c2[nH]c3ccc([N+](=O)[O-])cc3c2-c2ccccc2)CC1 [MJN228, (4-Methylpiperazin-1-yl)(5-nitro-3-phenyl-1H-indol-2-yl)methanone] was tested, and the “SILAC ratio, Rtn3” value ([1]; competitor 10 μM) was 1.2, the “SILAC ratio, Rtn3” value ([1]; competitor 25 μM) was 1.4 and the “SILAC ratio, Rtn3” value ([1]; competitor 50 μM) was 1.4. The “SILAC ratio, Rtn3” value ([1]; competitor 100 μM) was 1.7, the “SILAC ratio Rab2a” value ([2]; competitor 10 μM) was 1.4 and the “SILAC ratio Rab2a” value ([2]; competitor 25 μM) was 1.5. The “SILAC ratio Rab2a” value ([2]; competitor 50 μM) was 1.6, the “SILAC ratio Rab2a” value ([2]; competitor 100 μM) was 1.6 and the “SILAC ratio, Ssr1” value ([3]; competitor 10 μM) was 1.3. For the same compound, the “SILAC ratio, Ssr1” value ([3]; competitor 25 μM) was 1.7, the “SILAC ratio, Ssr1” value ([3]; competitor 50 μM) was 1.8 and the “SILAC ratio, Ssr1” value ([3]; competitor 100 μM) was 3.0. The “SILAC ratio, Pisd” value ([4]; competitor 25 μM) was 1.4, the “SILAC ratio Ociad1” value ([5]; competitor 10 μM) was 1.1 and the “SILAC ratio Ociad1” value ([5]; competitor 25 μM) was 1.4. The “SILAC ratio Ociad1” value ([5]; competitor 50 μM) was 1.1, the “SILAC ratio Ociad1” value ([5]; competitor 100 μM) was 1.5 and the “SILAC ratio, Aldh3a2” value ([6]; competitor 10 μM) was 1.2. For the same compound, the “SILAC ratio, Aldh3a2” value ([6]; competitor 25 μM) was 1.8, the “SILAC ratio, Aldh3a2” value ([6]; competitor 50 μM) was 1.7 and the “SILAC ratio, Aldh3a2” value ([6]; competitor 100 μM) was 2.1. The “SILAC ratio (AEA-DA competition)” value ([7]; competitor 10 μM) was 1.0 and the “SILAC ratio (AEA-DA competition)” value ([7]; competitor 25 μM) was 1.4.
In the case of CCCCC/C=C\C/C=C\C/C=C\C/C=C\CCCC(=O)NCCO [AEA, anandamide, reference compound], the “SILAC ratio, Rtn3” value ([1]; competitor 200 μM) is reported as 2.7, the “SILAC ratio Rab2a” value ([2]; competitor 200 μM) is reported as 1.3 and the “SILAC ratio, Ssr1” value ([3]; competitor 200 μM) is reported as 1.9. The “SILAC ratio, Pisd” value ([4]; competitor 200 μM) was 1.8, the “SILAC ratio Ociad1” value ([5]; competitor 200 μM) was 1.6 and the “SILAC ratio, Aldh3a2” value ([6]; competitor 200 μM) was 1.7. The “SILAC ratio (AEA-DA competition)” value ([7]; competitor 200 μM) was 1.0.
In the case of CN1CCN(C(=O)c2c(-c3ccccc3)c3cc([N+](=O)[O-])ccc3n2C)CC1 [KML110, (1-Methyl-5-nitro-3-phenyl-1H-indol-2-yl)(4-methylpiperazin-1-yl)methanone], the “SILAC ratio, Rtn3” value ([1]; competitor 25 μM) is reported as 1.3, the “SILAC ratio Rab2a” value ([2]; competitor 25 μM) is reported as 1.3 and the “SILAC ratio, Ssr1” value ([3]; competitor 25 μM) is reported as 1.7. The “SILAC ratio, Pisd” value ([4]; competitor 25 μM) was 1.4, the “SILAC ratio Ociad1” value ([5]; competitor 25 μM) was 1.3 and the “SILAC ratio, Aldh3a2” value ([6]; competitor 25 μM) was 1.4.
For O=C(/C=C/c1cccnc1)NCCCCC1CCN(C(=O)c2ccccc2)CC1 [FK-866, reference compound], the “SILAC ratio, Rtn3” value ([1]; competitor 25 μM) was 1.1, the “SILAC ratio Rab2a” value ([2]; competitor 25 μM) was 1.2 and the “SILAC ratio, Ssr1” value ([3]; competitor 25 μM) was 1.3. The “SILAC ratio Ociad1” value ([5]; competitor 25 μM) was 1.1 and the “SILAC ratio, Aldh3a2” value ([6]; competitor 25 μM) was 1.6.
